Measurements from ChEMBL document CHEMBL1938346, “Structure-activity studies of diazabicyclo[3.3.0]octane-substituted pyrazines and pyridines as potent α4β2 nicotinic acetylcholine receptor ligands” (J Med Chem, 2011).

Key:
[1] = Agonist activity at nAChR alpha3beta4* expressed in human IMR32 cells assessed as calcium flux by FLIPR assay; type: functional, cell-based
[2] = Drug uptake in rat brain at 2 umol/kg, ip measured after 0.75 hrs; type: ADME, organism-based; details: read-out: Drug uptake
[3] = Agonist activity at nAChR alpha3beta4* expressed in human IMR32 cells assessed as calcium flux by FLIPR assay relative to nicotine; type: functional; details: IMR-32
[4] = target: Neuronal acetylcholine receptor; alpha4/beta2 (Rattus norvegicus, UniProt P09483+P12390); assay: Displacement of [3H]cytisine from nAChR alpha4beta2 in rat brain membrane; type: cell membranes
[5] = Ratio drug uptake in brain to plasma of rat at 2 umol/kg, ip measured after 0.75 hrs; type: ADME, organism-based; details: read-out: BPR
[6] = Drug uptake in rat plasma at 2 umol/kg, ip measured after 0.75 hrs; type: ADME, organism-based
[7] = Oral bioavailability in rat at 2 umol/kg; type: ADME, organism-based; details: in vivo
[8] = Half life in rat at 2 umol/kg, po measured after 8 hrs; type: ADME, organism-based; details: in vivo
[9] = Half life in rat at 2 umol/kg, ip measured after 8 hrs; type: ADME, organism-based; details: in vivo
[10] = Half life in rat at 2 umol/kg, iv measured after 8 hrs; type: ADME, organism-based; details: in vivo
[11] = Bioavailability in rat at 2 umol/kg, ip; type: ADME, organism-based; details: in vivo

Neuronal acetylcholine receptor; alpha4/beta2, sequence (P09483 whole entry): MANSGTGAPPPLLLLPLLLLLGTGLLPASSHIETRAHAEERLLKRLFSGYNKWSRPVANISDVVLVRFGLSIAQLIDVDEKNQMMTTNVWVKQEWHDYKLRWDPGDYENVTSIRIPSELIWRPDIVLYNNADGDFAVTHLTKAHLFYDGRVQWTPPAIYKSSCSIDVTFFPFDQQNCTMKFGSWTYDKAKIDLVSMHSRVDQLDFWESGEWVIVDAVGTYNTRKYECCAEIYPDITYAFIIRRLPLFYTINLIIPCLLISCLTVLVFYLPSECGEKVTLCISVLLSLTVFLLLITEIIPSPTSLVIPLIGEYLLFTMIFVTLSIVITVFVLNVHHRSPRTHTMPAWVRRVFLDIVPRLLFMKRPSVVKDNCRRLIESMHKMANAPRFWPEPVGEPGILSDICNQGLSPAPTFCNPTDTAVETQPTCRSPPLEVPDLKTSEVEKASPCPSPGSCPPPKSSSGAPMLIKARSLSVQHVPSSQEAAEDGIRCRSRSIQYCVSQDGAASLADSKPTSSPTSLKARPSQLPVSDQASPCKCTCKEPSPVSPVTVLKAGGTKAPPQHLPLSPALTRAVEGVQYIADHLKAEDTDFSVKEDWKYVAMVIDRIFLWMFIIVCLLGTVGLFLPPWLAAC
Neuronal acetylcholine receptor; alpha4/beta2, sequence (P12390 whole entry): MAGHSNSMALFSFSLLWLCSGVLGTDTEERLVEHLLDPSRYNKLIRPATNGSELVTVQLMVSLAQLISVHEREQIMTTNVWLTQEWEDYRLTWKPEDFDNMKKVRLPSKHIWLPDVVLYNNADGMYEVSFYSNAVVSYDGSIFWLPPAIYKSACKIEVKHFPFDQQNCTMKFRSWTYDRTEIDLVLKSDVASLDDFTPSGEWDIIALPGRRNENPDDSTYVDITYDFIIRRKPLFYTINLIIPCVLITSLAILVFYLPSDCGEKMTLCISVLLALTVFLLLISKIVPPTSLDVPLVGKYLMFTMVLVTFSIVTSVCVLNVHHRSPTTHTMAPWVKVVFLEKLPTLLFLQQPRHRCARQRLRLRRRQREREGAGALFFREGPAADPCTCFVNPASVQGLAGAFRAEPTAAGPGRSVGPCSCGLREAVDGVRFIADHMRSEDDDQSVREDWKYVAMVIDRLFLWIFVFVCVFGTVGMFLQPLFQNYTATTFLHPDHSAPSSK

Cc1ccccc1CNC(=O)c1cncc(N2C[C@H]3CNC[C@H]3C2)c1
EC50 ([1]; IMR-32, read-out: EC50): > 100000 nM
concentration at 0.75 h [2]: 3.3 ng/mL
Emax [3]: 8%
Ki ([4]; read-out: Ki): 2.7 nM
Kp at 0.75 h [5]: 0.02
concentration at 0.75 h [6]: 142 ng/mL

O=C(Nc1cccc(I)c1)c1cncc(N2C[C@H]3CNC[C@H]3C2)c1
EC50 ([1]; IMR-32, read-out: EC50): > 100000 nM
Emax [3]: 6%
Ki ([4]; read-out: Ki): 0.02 nM
Ki ([4]; read-out: pKi (converted)): 0.0245 nM

CN(Cc1ccccc1)C(=O)c1cncc(N2C[C@H]3CNC[C@H]3C2)c1
EC50 ([1]; IMR-32, read-out: EC50): > 100000 nM
concentration at 0.75 h [2]: 6 ng/mL
Emax [3]: 14%
Ki ([4]; read-out: Ki): 3.9 nM
Kp at 0.75 h [5]: 0.07
concentration at 0.75 h [6]: 89.8 ng/mL

O=C(NCCc1ccccc1F)c1cncc(N2C[C@H]3CNC[C@H]3C2)c1
EC50 ([1]; IMR-32, read-out: EC50): 15800 nM
EC50 ([1]; IMR-32, read-out: pEC50 (converted)): 15800 nM
Emax [3]: 6%
Ki ([4]; read-out: Ki): 0.8 nM

O=C(Nc1cc(F)cc(F)c1)c1cncc(N2C[C@H]3CNC[C@H]3C2)c1
EC50 ([1]; IMR-32, read-out: EC50): > 100000 nM
Emax [3]: 18%
Ki ([4]; read-out: Ki): 0.04 nM

c1cncc(N2C[C@H]3CCN[C@H]3C2)c1
Ki ([4]; read-out: Ki): 0.34 nM

COc1cc(NC(=O)c2cncc(N3C[C@H]4CNC[C@H]4C3)c2)cc(OC)c1
EC50 ([1]; IMR-32, read-out: EC50): > 100000 nM
concentration at 0.75 h [2]: 5.5 ng/mL
Emax [3]: 10%
Ki ([4]; read-out: Ki): 0.3 nM
Kp at 0.75 h [5]: 0.07
concentration at 0.75 h [6]: 74.5 ng/mL

O=C(NCCc1ccccc1)c1cncc(N2C[C@H]3CNC[C@H]3C2)n1
EC50 ([1]; IMR-32, read-out: EC50): > 100000 nM
Emax [3]: 13%
Ki ([4]; read-out: Ki): 69 nM

Cc1cccc(NC(=O)c2cncc(N3C[C@H]4CNC[C@H]4C3)c2)c1
EC50 ([1]; IMR-32, read-out: EC50): > 100000 nM
concentration at 0.75 h [2]: 6.4 ng/mL
Emax [3]: 6%
Ki ([4]; read-out: Ki): 0.1 nM
Kp at 0.75 h [5]: 0.12
concentration at 0.75 h [6]: 52.1 ng/mL

CC(C)c1cccc(NC(=O)c2cncc(N3C[C@H]4CNC[C@H]4C3)n2)c1
Ki ([4]; read-out: Ki): 35 nM

O=C(Nc1cccc(I)c1)c1cncc(N2C[C@H]3CNC[C@H]3C2)n1
EC50 ([1]; IMR-32, read-out: EC50): > 100000 nM
Emax [3]: 7%
Ki ([4]; read-out: Ki): 3.3 nM

O=C(Nc1cccc(Cl)c1)c1cncc(N2C[C@H]3CNC[C@H]3C2)n1
EC50 ([1]; IMR-32, read-out: EC50): > 100000 nM
Emax [3]: 26%
Ki ([4]; read-out: Ki): 0.7 nM

c1ccc(COc2cncc(N3C[C@H]4CNC[C@H]4C3)n2)cc1
concentration at 0.75 h [2]: 76.8 ng/mL
Kp at 0.75 h [5]: 3.27
concentration at 0.75 h [6]: 23.5 ng/mL

Cc1ccccc1CNC(=O)c1cncc(N2C[C@@H]3CCN[C@@H]3C2)n1
Ki ([4]; read-out: Ki): > 10000 nM
Ki ([4]; read-out: pKi (converted)): > 10000 nM

O=C(NCc1ccccc1)c1cncc(N2C[C@H]3CNC[C@H]3C2)n1
EC50 ([1]; IMR-32, read-out: EC50): > 100000 nM
concentration at 0.75 h [2]: 3 ng/mL
Emax [3]: 10%
Ki ([4]; read-out: Ki): 3.9 nM
Kp at 0.75 h [5]: 0.04
concentration at 0.75 h [6]: 81.3 ng/mL

O=C(Nc1cc(F)cc(F)c1)c1cncc(N2C[C@H]3CNC[C@H]3C2)n1
EC50 ([1]; IMR-32, read-out: EC50): > 100000 nM
Emax [3]: 8%
Ki ([4]; read-out: Ki): 14 nM

C[C@H](NC(=O)c1cncc(N2C[C@H]3CNC[C@H]3C2)c1)c1ccccc1
EC50 ([1]; IMR-32, read-out: EC50): > 100000 nM
Emax [3]: 5%
Ki ([4]; read-out: Ki): 39 nM

Cc1cccc(NC(=O)c2cncc(N3C[C@H]4CNC[C@H]4C3)n2)c1
EC50 ([1]; IMR-32, read-out: EC50): > 100000 nM
Emax [3]: 10%
Ki ([4]; read-out: Ki): 7.6 nM

CC(NC(=O)c1cncc(N2C[C@H]3CNC[C@H]3C2)n1)c1ccccc1 (stereo not given in full)
Ki ([4]; read-out: Ki): 132 nM

Cc1cc(C)cc(NC(=O)c2cncc(N3C[C@H]4CNC[C@H]4C3)n2)c1
Ki ([4]; read-out: Ki): 51 nM

Cc1ccccc1CNC(=O)c1cncc(N2CC[C@@H]3CNC[C@@H]32)n1
Ki ([4]; read-out: Ki): 5600 nM

CC(C)Oc1cccc(NC(=O)c2cncc(N3C[C@H]4CNC[C@H]4C3)c2)c1
EC50 ([1]; IMR-32, read-out: EC50): > 100000 nM
Emax [3]: 10%
Ki ([4]; read-out: Ki): 1.1 nM

c1cncc(N2C[C@@H]3CCN[C@@H]3C2)c1
Ki ([4]; read-out: Ki): 2.9 nM

C[C@@H](NC(=O)c1cncc(N2C[C@H]3CNC[C@H]3C2)c1)c1ccccc1
EC50 ([1]; IMR-32, read-out: EC50): > 100000 nM
concentration at 0.75 h [2]: 20.6 ng/mL
Emax [3]: 6%
Ki ([4]; read-out: Ki): 2.2 nM
Kp at 0.75 h [5]: 0.15
concentration at 0.75 h [6]: 139 ng/mL

Cc1ccccc1CNC(=O)c1cncc(N2C[C@H]3CNC[C@H]3C2)n1
EC50 ([1]; IMR-32, read-out: EC50): > 100000 nM
concentration at 0.75 h [2]: 8 ng/mL
bioavailability [7]: 35%
half-life [8]: 2.1 h
half-life [9]: 2.4 h
half-life [10]: 1.7 h
Emax [3]: 17%
Ki ([4]; read-out: Ki): 1.7 nM
Kp at 0.75 h [5]: 0.04
bioavailability [11]: 77%
concentration at 0.75 h [6]: 178 ng/mL

Cc1ccccc1CNC(=O)c1cncc(N2CC[C@H]3CNC[C@H]32)c1
Ki ([4]; read-out: Ki): 871 nM

c1cnc(N2C[C@H]3CNC[C@H]3C2)cn1
Ki ([4]; read-out: Ki): 7.8 nM

c1cncc(N2C[C@H]3CNC[C@H]3C2)c1
Ki ([4]; read-out: Ki): 0.13 nM

Cc1cccc(NC(=O)c2cncc(N3C[C@@H]4CCN[C@@H]4C3)n2)c1
Ki ([4]; read-out: Ki): 2630 nM

Cc1cc(C)cc(NC(=O)c2cncc(N3C[C@H]4CNC[C@H]4C3)c2)c1
EC50 ([1]; IMR-32, read-out: EC50): > 100000 nM
Emax [3]: 6%
Ki ([4]; read-out: Ki): 0.3 nM
Ki ([4]; read-out: pKi (converted)): 0.339 nM

O=C(c1cncc(N2C[C@H]3CNC[C@H]3C2)c1)N1CCc2ccccc2C1
EC50 ([1]; IMR-32, read-out: EC50): > 100000 nM
Emax [3]: 7%
Ki ([4]; read-out: Ki): 0.3 nM

CC(C)Oc1cccc(NC(=O)c2cncc(N3C[C@H]4CNC[C@H]4C3)n2)c1
EC50 ([1]; IMR-32, read-out: EC50): > 100000 nM
Emax [3]: 7%
Ki ([4]; read-out: Ki): 26 nM

O=C(NCc1ccccc1C(F)(F)F)c1cncc(N2C[C@H]3CNC[C@H]3C2)c1
EC50 ([1]; IMR-32, read-out: EC50): > 100000 nM
concentration at 0.75 h [2]: 6.9 ng/mL
Emax [3]: 4%
Ki ([4]; read-out: Ki): 0.9 nM
Kp at 0.75 h [5]: 0.04
concentration at 0.75 h [6]: 164 ng/mL

O=C(Nc1ccc(Cl)cc1)c1cncc(N2C[C@H]3CNC[C@H]3C2)c1
EC50 ([1]; IMR-32, read-out: EC50): > 100000 nM
Emax [3]: 8%
Ki ([4]; read-out: Ki): 0.2 nM

O=C(NCc1ccc(Cl)c(Cl)c1)c1cncc(N2C[C@H]3CNC[C@H]3C2)n1
EC50 ([1]; IMR-32, read-out: EC50): > 100000 nM
Emax [3]: 12%
Ki ([4]; read-out: Ki): 2.5 nM

O=C(NC1CCc2ccccc21)c1cncc(N2C[C@H]3CNC[C@H]3C2)c1 (stereo not given in full)
EC50 ([1]; IMR-32, read-out: EC50): > 100000 nM
Emax [3]: 10%
Ki ([4]; read-out: Ki): 17 nM

CN(Cc1ccccc1)C(=O)c1cncc(N2C[C@H]3CNC[C@H]3C2)n1
Ki ([4]; read-out: Ki): 174 nM
